The test system of one assay is RAW264.7 macrophages. The assay is described as follows: Cell viability, WST-1 reagent. Particulars: Mus musculus, 2 h pre-treatment, then 20 ng/ml IFNγ for 24 hours. Type of assay: cell-based, mouse. Here is the method:
(§1) FIGS. 1-34. Inhibition of NO Production. RAW264.7 macrophages were pre-treated with DMSO or drugs at various concentrations (nM) for 2 hours, then treated with 20 ng/ml IFNγ for 24 hours. NO concentration in media was determined using the Griess reagent system; cell viability was determined using WST-1 reagent. FIGS. 49-52. Inhibition of NO Production. RAW264.7 macrophages were pre-treated with DMSO or drugs at various concentrations (nM) for 2 hours, then treated with 20 ng/ml IFNγ for 24 hours. NO concentration in media was determined using the Griess reagent system; cell viability was determined using WST-1 reagent. RAW264.7 macrophages were pre-treated with DMSO or drugs for 2 hours, then treated with recombinant mouse IFNγ (Sigma) for 24 hours. NO concentration in media was determined using the Griess reagent system (Promega). Cell viability was determined using WST-1 reagent (Roche).

The test system of assay [1] is IFNγ-induced NO production in RAW264.7 macrophages. The assay is described as follows: Suppression of IFNγ-induced NO production (Griess reagent). Type of assay: cell-based, mouse. The note with it: Mus musculus, 2 h pre-treatment, then 20 ng/ml IFNγ for 24 hours. The protocol: as §1
In general terms: Griess reagent forms a coloured azo dye with nitrite.

Usually IC50 stands for the concentration at which inhibition is half-maximal. Consider `CC1(C)CC[C@]2(NC(=O)Nc3ccc(O)cc3)CC[C@]3(C)[C@H](C(=O)C=C4[C@@]5(C)C=C(C#N)C(=O)C(C)(C)[C@@H]5CC[C@]43C)[C@@H]2C1` [Compound 63148, 1-((4aS,6aR,6bS,8aR,12aS,14aR,14bS)-11-cyano-2,2,6a,6b,9,9,12a-heptamethyl-10,14-dioxo-1,2,3,4,4a,5,6,6a,6b,7,8,8a,9,10,12a,14,14a,14b-octadecahydropicen-4a-yl)-3-(4-hydroxyphenyl)urea], for which the IC50 was above 200 nM in the assay with RAW264.7 macrophages and around 25 nM in assay [1].

As for `CCOC(=O)N[C@]12CCC(C)(C)C[C@H]1[C@H]1C(=O)C=C3[C@@]4(C)C=C(C#N)C(=O)C(C)(C)[C@@H]4CC[C@@]3(C)[C@]1(C)CC2` [Compound 63168, ethyl-(4aS,6aR,6bS,8aR,12aS,14aR,14bS)-11-cyano-2,2,6a,6b,9,9,12a-heptamethyl-10,14-dioxo-1,2,3,4,4a,5,6,6a,6b,7,8,8a,9,10,12a,14,14a,14b-octadecahydropicen-4a-ylcarbamate], the figures for the IC50 (in the assay on RAW264.7 macrophages; in assay [1]) were 150 nM and 3.2 nM, respectively.

For `CC(=O)N[C@]12CCC(C)(C)C[C@H]1[C@H]1C(=O)C=C3[C@@]4(C)C=C(C#N)C(=O)C(C)(C)[C@@H]4CC[C@@]3(C)[C@]1(C)CC2` [Compound 63170, N-((4aS,6aR,6bS,8aR,12aS,14aR,14bS)-11-cyano-2,2,6a,6b,9,9,12a-heptamethyl-10,14-dioxo-1,2,3,4,4a,5,6,6a,6b,7,8,8a,9,10,12a,14,14a,14b-octadecahydropicen-4a-yl)acetamide], the figures for the IC50 (in the assay with RAW264.7 macrophages; in assay [1]) were above 200 nM and 10.8 nM, respectively.

For the compound `CC1(C)CC[C@]2(NC(=O)C(F)(F)F)CC[C@]3(C)[C@H](C(=O)C=C4[C@@]5(C)C=C(C#N)C(=O)C(C)(C)[C@@H]5CC[C@]43C)[C@@H]2C1` [Compound 63171, N-((4aS,6aR,6bS,8aR,12aS,14aR,14bS)-11-cyano-2,2,6a,6b,9,9,12a-heptamethyl-10,14-dioxo-1,2,3,4,4a,5,6,6a,6b,7,8,8a,9,10,12a,14,14a,14b-octadecahydropicen-4a-yl)-2,2,2-trifluoroacetamide], the IC50 with RAW264.7 macrophages was 90 nM; in assay [1] it was 12 nM.

Regarding `CCNC(=O)N[C@]12CCC(C)(C)C[C@H]1[C@H]1C(=O)C=C3[C@@]4(C)C=C(C#N)C(=O)C(C)(C)[C@@H]4CC[C@@]3(C)[C@]1(C)CC2` [Compound 63173, 1-((4aS,6aR,6bS,8aR,12aS,14aR,14bS)-11-cyano-2,2,6a,6b,9,9,12a-heptamethyl-10,14-dioxo-1,2,3,4,4a,5,6,6a,6b,7,8,8a,9,10,12a,14,14a,14b-octadecahydropicen-4a-yl)-3-ethylurea], the IC50 is above 200 nM in the assay with RAW264.7 macrophages and 31 nM in assay [1].

Consider `CC1(C)CC[C@]2(NC(=O)OCc3ccccc3)CC[C@]3(C)[C@H](C(=O)C=C4[C@@]5(C)C=C(C#N)C(=O)C(C)(C)[C@@H]5CC[C@]43C)[C@@H]2C1` [Compound 63174, benzyl-(4aS,6aR,6bS,8aR,12aS,14aR,14bS)-11-cyano-2,2,6a,6b,9,9,12a-heptamethyl-10,14-dioxo-1,2,3,4,4a,5,6,6a,6b,7,8,8a,9,10,12a,14,14a,14b-octadecahydropicen-4a-ylcarbamate], for which the IC50 in the assay on RAW264.7 macrophages was found to be 80 nM; in assay [1] it was 26 nM.

As for `CC1(C)CC[C@]2(NC(N)=O)CC[C@]3(C)[C@H](C(=O)C=C4[C@@]5(C)C=C(C#N)C(=O)C(C)(C)[C@@H]5CC[C@]43C)[C@@H]2C1` [Compound 63176, 1-((4aS,6aR,6bS,8aR,12aS,14aR,14bS)-11-cyano-2,2,6a,6b,9,9,12a-heptamethyl-10,14-dioxo-1,2,3,4,4a,5,6,6a,6b,7,8,8a,9,10,12a,14,14a,14b-octadecahydropicen-4a-yl)urea], the IC50 with RAW264.7 macrophages was above 200 nM; in assay [1] it was 100 nM.

For the compound `CC1(C)CC[C@]2(NC(=O)n3cccn3)CC[C@]3(C)[C@H](C(=O)C=C4[C@@]5(C)C=C(C#N)C(=O)C(C)(C)[C@@H]5CC[C@]43C)[C@@H]2C1` [Compound 63178, N-((4aS,6aR,6bS,8aR,12aS,14aR,14bS)-11-cyano-2,2,6a,6b,9,9,12a-heptamethyl-10,14-dioxo-1,2,3,4,4a,5,6,6a,6b,7,8,8a,9,10,12a,14,14a,14b-octadecahydropicen-4a-yl)-1H-pyrazole-1-carboxamide], the IC50 with RAW264.7 macrophages stood at 80 nM; in assay [1], 6.8 nM.

As to `CC1(C)CC[C@]2(NC(=O)CC(F)(F)F)CC[C@]3(C)[C@H](C(=O)C=C4[C@@]5(C)C=C(C#N)C(=O)C(C)(C)[C@@H]5CC[C@]43C)[C@@H]2C1` [Compound 63179, N-((4aS,6aR,6bS,8aR,12aS,14aR,14bS)-11-cyano-2,2,6a,6b,9,9,12a-heptamethyl-10,14-dioxo-1,2,3,4,4a,5,6,6a,6b,7,8,8a,9,10,12a,14,14a,14b-octadecahydropicen-4a-yl)-3,3,3-trifluoropropanamide], the IC50 in the assay with RAW264.7 macrophages was determined as 100 nM; in assay [1], 16 nM.

For the compound `CN(C)C(=O)N[C@]12CCC(C)(C)C[C@H]1[C@H]1C(=O)C=C3[C@@]4(C)C=C(C#N)C(=O)C(C)(C)[C@@H]4CC[C@@]3(C)[C@]1(C)CC2` [Compound 63180, 3-((4aS,6aR,6bS,8aR,12aS,14aR,14bS)-11-cyano-2,2,6a,6b,9,9,12a-heptamethyl-10,14-dioxo-1,2,3,4,4a,5,6,6a,6b,7,8,8a,9,10,12a,14,14a,14b-octadecahydropicen-4a-yl)-1,1-dimethylurea], the IC50 in the assay with RAW264.7 macrophages came to 200 nM; in assay [1], 13.5 nM.

Regarding `CC1(C)CC[C@]2(NC(=O)N3CCCCC3)CC[C@]3(C)[C@H](C(=O)C=C4[C@@]5(C)C=C(C#N)C(=O)C(C)(C)[C@@H]5CC[C@]43C)[C@@H]2C1` [Compound 63181, N-((4aS,6aR,6bS,8aR,12aS,14aR,14bS)-11-cyano-2,2,6a,6b,9,9,12a-heptamethyl-10,14-dioxo-1,2,3,4,4a,5,6,6a,6b,7,8,8a,9,10,12a,14,14a,14b-octadecahydropicen-4a-yl)piperidine-1-carboxamide], the values for the IC50 (with RAW264.7 macrophages; in assay [1]) were 75 nM and 4 to 8 nM, respectively.

On to `CC1(C)CC[C@]2(NC(=O)c3ccccc3)CC[C@]3(C)[C@H](C(=O)C=C4[C@@]5(C)C=C(C#N)C(=O)C(C)(C)[C@@H]5CC[C@]43C)[C@@H]2C1` [Compound 63182, N-((4aS,6aR,6bS,8aR,12aS,14aR,14bS)-11-cyano-2,2,6a,6b,9,9,12a-heptamethyl-10,14-dioxo-1,2,3,4,4a,5,6,6a,6b,7,8,8a,9,10,12a,14,14a,14b-octadecahydropicen-4a-yl)benzamide], for which the values for the IC50 (in the assay with RAW264.7 macrophages; in assay [1]) were 125 nM and 7 to 13 nM, respectively.

For the compound `CC(C)OC(=O)N[C@]12CCC(C)(C)C[C@H]1[C@H]1C(=O)C=C3[C@@]4(C)C=C(C#N)C(=O)C(C)(C)[C@@H]4CC[C@@]3(C)[C@]1(C)CC2` [Compound 63184, isopropyl-(4aS,6aR,6bS,8aR,12aS,14aR,14bS)-11-cyano-2,2,6a,6b,9,9,12a-heptamethyl-10,14-dioxo-1,2,3,4,4a,5,6,6a,6b,7,8,8a,9,10,12a,14,14a,14b-octadecahydropicen-4a-ylcarbamate], the IC50 in the assay on RAW264.7 macrophages is 75 nM; in assay [1], 14.5 nM.

`CC1(C)CC[C@]2(NC(=O)Nc3ccccc3)CC[C@]3(C)[C@H](C(=O)C=C4[C@@]5(C)C=C(C#N)C(=O)C(C)(C)[C@@H]5CC[C@]43C)[C@@H]2C1` [Compound 63249, 1-((4aS,6aR,6bS,8aR,12aS,14aR,14bS)-11-cyano-2,2,6a,6b,9,9,12a-heptamethyl-10,14-dioxo-1,2,3,4,4a,5,6,6a,6b,7,8,8a,9,10,12a,14,14a,14b-octadecahydropicen-4a-yl)-3-phenylurea]: the IC50 with RAW264.7 macrophages worked out at 50 nM.

For `CC(=O)N[C@]12CCC(C)(C)C[C@H]1[C@H]1C(=O)C[C@@H]3[C@@]4(C)C=C(C#N)C(=O)C(C)(C)[C@@H]4CC[C@@]3(C)[C@]1(C)CC2` [Compound 63321, N-((4aS,6aR,6bR,8aR,12aR,12bR,14aR,14bS)-11-cyano-2,2,6a,6b,9,9,12a-heptamethyl-10,14-dioxo-1,2,3,4,4a,5,6,6a,6b,7,8,8a,9,10,12a,12b,13,14,14a,14b-icosahydropicen-4a-yl)acetamide], the IC50 in assay [1] is around 70 nM.

Consider `CC1(C)CC[C@]2(NC(=O)C(F)(F)F)CC[C@]3(C)[C@H](C(=O)C[C@@H]4[C@@]5(C)C=C(C#N)C(=O)C(C)(C)[C@@H]5CC[C@]43C)[C@@H]2C1` [Compound 63322, N-((4aS,6aR,6bR,8aR,12aR,12bR,14aR,14bS)-11-cyano-2,2,6a,6b,9,9,12a-heptamethyl-10,14-dioxo-1,2,3,4,4a,5,6,6a,6b,7,8,8a,9,10,12a,12b,13,14,14a,14b-icosahydropicen-4a-yl)-2,2,2-trifluoroacetamide], for which the IC50 in assay [1] was around 50 nM.

As for `CNC(=O)N[C@]12CCC(C)(C)C[C@H]1[C@H]1C(=O)C[C@@H]3[C@@]4(C)C=C(C#N)C(=O)C(C)(C)[C@@H]4CC[C@@]3(C)[C@]1(C)CC2` [Compound 63327, 1-((4aS,6aR,6bR,8aR,12aR,12bR,14aR,14bS)-11-cyano-2,2,6a,6b,9,9,12a-heptamethyl-10,14-dioxo-1,2,3,4,4a,5,6,6a,6b,7,8,8a,9,10,12a,12b,13,14,14a,14b-icosahydropicen-4a-yl)-3-methylurea], the IC50 in assay [1] is around 100 nM.

Turning to `COC(=O)N[C@]12CCC(C)(C)C[C@H]1[C@H]1C(=O)C[C@@H]3[C@@]4(C)C=C(C#N)C(=O)C(C)(C)[C@@H]4CC[C@@]3(C)[C@]1(C)CC2` [Compound 63328, methyl (4aS,6aR,6bR,8aR,12aR,12bR,14aR,14bS)-11-cyano-2,2,6a,6b,9,9,12a-heptamethyl-10,14-dioxo-1,2,3,4,4a,5,6,6a,6b,7,8,8a,9,10,12a,12b,13,14,14a,14b-icosahydropicen-4a-ylcarbamate], the IC50 in assay [1] was around 25 nM.

The values above are taken from patent US9670147B2, “Antioxidant inflammation modulators: oleanolic acid derivatives with amino and other modifications at C-17” (REATA PHARMACEUTICALS, INC., priority 2008, dated 2017).
